Values quoted from earlier work, collected in patent US9907752B2, “Bendamustine solid dispersions and continuous infusion” (priority 2014, dated 2018).
In brackets after ≈: the same amount, converted by molar mass.

Assays:
[1] = aqueous solution

SMILES | solubility in DMSO (DMSO) | solubility in water (water) | hydrolysis reaction half times [1]
OC[C@@H](O)[C@@H](O)[C@H](O)[C@H](O)CO [mannitol] | ~36 mg/mL (≈ 198 mM) | ~36 mg/mL (≈ 198 mM) | 
Cn1c(CCCC(=O)O)nc2cc(N(CCCl)CCCl)ccc21 [bendamustine, 4-{5-[Bis(2-chloroethyl)amino]-1-methyl-2-benzimidazolyl}butyric acid] |  |  | measured in hours rather than seconds
